Experimental data: patent publication US10889573B2, “Anthelmintic quinoline-3-carboxamide derivatives” (Bayer Animal Health GMBH, priority 2016, dated 2021)

Key:
[1] = molecular target: C. elegans Slo-1a (Caenorhabditis elegans, UniProt Q95V25); conditions: pE50 (negative decadic logarithm of EC50), CHO cells expressing C. elegans Slo-1a, voltage sensitive dye
[2] = tested on: Nippostrongylus brasiliensis; experiment: In vitro assay 2: Nippostrongylus brasiliensis (NIPOBR), acetylcholine esterase readout; conditions: read-out: activity (reduction of AChE compared to negative control); for inhibition at 1 µg/mL: 1 μg/ml; for inhibition at 10 µg/mL: 10 μg/ml
Experimental: In Vitro Assay 2: Nippostrongylus brasiliensis (NIPOBR)
Adult Nippostrongylus brasiliensis were washed with saline buffer containing 100 U/ml penicillin, 0.1 mg/ml streptomycin and 2.5 μg/ml amphotericin B. Test compounds were dissolved in DMSO and worms were incubated in medium in a final concentration of 10 μg/ml (10 ppm) respectively 1 μg/ml (1 ppm). An aliquot of the medium was used to determine the acetylcholine esterase activity in comparison to a negative control. The principle of measuring acetylcholine esterase as readout for anthelmintic activity was described in Rapson et al (1986) and Rapson et al (1987).

[3] = tested on: Dirofilaria immitis third-stage larvae; experiment: In vitro assay 4: Dirofilaria immitis (DIROIM L4), motility; conditions: 72 h, read-out: EC50 (reduction of motility)
[4] = tested on: Dirofilaria immitis microfilariae; experiment: In vitro assay 3: Dirofilaria immitis microfilariae (DIROIM L1), motility; conditions: 72 h, read-out: EC50 (reduction of motility), 72 h incubation
[5] = tested on: Haemonchus contortus; conditions: 120 h, read-out: activity (larval mortality)
Experimental: In Vitro Assay 7: Haemonchus contortus (HAEMCO L3)
Solvent: dimethyl sulfoxide
Approximately 40 larvae of the red stomach worm (Haemonchus contortus) are transferred into a test tube containing compound solution.
After 5 days the percentage of larval mortality is recorded. 100% efficacy means all larvae are killed, 0% efficacy means no larvae are killed.

[6] = tested on: Cooperia curticei; conditions: Cooperia curticei, 120 h, read-out: activity (larval mortality)
Experimental: In Vitro Assay 6: Cooperia curticei (COOPCU L3)
Solvent: dimethyl sulfoxide
Approximately 40 nematode larvae (Cooperia curticei) are transferred into a test tube containing the compound solution.
After 5 days percentage of larval mortality is recorded. 100% efficacy means all larvae are killed; 0% efficacy means no larvae are killed.

Chain of C. elegans Slo-1a (Q95V25 whole entry): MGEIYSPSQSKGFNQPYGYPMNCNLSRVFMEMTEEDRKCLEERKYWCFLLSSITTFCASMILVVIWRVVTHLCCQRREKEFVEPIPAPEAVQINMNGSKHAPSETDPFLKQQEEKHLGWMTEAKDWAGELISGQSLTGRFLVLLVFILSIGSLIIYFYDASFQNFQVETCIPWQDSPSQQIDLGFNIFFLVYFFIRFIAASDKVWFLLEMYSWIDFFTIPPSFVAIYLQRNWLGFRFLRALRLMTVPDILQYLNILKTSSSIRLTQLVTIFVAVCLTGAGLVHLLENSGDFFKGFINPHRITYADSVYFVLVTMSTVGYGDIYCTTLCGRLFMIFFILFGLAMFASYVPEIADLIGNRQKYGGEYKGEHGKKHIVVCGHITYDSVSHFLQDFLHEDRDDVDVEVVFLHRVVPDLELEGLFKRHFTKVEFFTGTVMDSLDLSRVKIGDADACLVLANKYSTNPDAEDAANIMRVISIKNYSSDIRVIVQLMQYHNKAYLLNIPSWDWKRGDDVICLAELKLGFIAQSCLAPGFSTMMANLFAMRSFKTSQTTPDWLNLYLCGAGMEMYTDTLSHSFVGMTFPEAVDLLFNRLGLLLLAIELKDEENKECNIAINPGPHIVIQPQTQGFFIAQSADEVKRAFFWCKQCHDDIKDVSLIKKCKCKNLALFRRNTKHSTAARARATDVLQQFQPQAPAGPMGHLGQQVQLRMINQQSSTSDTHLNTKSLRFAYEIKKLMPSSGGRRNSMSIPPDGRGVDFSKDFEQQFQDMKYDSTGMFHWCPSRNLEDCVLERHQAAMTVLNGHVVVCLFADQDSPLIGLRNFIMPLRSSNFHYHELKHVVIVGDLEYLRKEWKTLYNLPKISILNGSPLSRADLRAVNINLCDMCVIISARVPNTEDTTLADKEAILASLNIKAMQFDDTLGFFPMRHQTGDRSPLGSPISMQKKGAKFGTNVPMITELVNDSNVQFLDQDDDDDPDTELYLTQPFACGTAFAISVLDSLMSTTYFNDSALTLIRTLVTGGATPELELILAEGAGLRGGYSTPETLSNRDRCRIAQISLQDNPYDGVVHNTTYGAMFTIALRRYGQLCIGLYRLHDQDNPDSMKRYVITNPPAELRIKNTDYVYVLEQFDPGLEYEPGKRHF

Compound | EC50 [1] | inhibition at 1 µg/mL [2] | EC50 [3] | EC50 [4] | mortality at 4 ppm [5] | mortality at 20 ppm [5] | mortality at 4 ppm [6] | mortality at 20 ppm [6] | inhibition at 10 µg/mL [2]
N#CCc1c(C(=O)N[C@H]2CCOc3ccccc32)cnc2c(-c3cc(Cl)cc(Cl)c3)cccc12 [Example 355, 4-(cyanomethyl)-8-(3,5-dichlorophenyl)-N-[(4S)-3,4-dihydro-2H-chromen-4-yl]quinoline-3-carboxamide] | < 3.16 nM | > 80% | < 0.1 µg/mL | < 0.1 µg/mL | – | – | – | – | –
O=C(N[C@H]1CCOc2ccccc21)c1cnc2c(-c3cc(Cl)cc(C(F)(F)F)c3)cccc2c1N1CCC(O)C1 (mixture of isomers) [Example 271] | < 3.16 nM | > 80% | < 0.1 µg/mL | < 0.1 µg/mL | 90% | 90% | 90% | 90% | –
O=C(N[C@H]1CCOc2ccccc21)c1cnc2c(-c3sccc3Cl)cccc2c1N1CCOCC1 [Example 442] | < 3.16 nM | – | < 0.1 µg/mL | < 0.1 µg/mL | – | – | – | – | –
O=C(N[C@H]1CCOc2ccccc21)c1cnc2c(-c3cc(Cl)cc(Cl)c3)cccc2c1N1CC[C@@H](C(=O)O)C1 [Example 332] | < 3.16 nM | > 80% | < 0.1 µg/mL | < 0.1 µg/mL | 100% | 100% | 100% | 100% | –
O=C(N[C@H]1CCOc2ccccc21)c1cnc2c(-c3cc(Cl)cc(Cl)c3)cccc2c1N1CC(F)C1 [Example 392] | 3.16 to 31.6 nM | > 80% | < 0.1 µg/mL | < 0.1 µg/mL | 80% | 80% | – | – | –
CN(C)c1c(C(=O)N[C@H]2CCOc3ccccc32)cnc2c(-c3c(F)cccc3F)cccc12 [Example 277] | < 3.16 nM | > 80% | < 0.1 µg/mL | < 0.1 µg/mL | – | – | – | – | –
O=C(N[C@H]1CCOc2ccccc21)c1cnc2c(-c3cc(Cl)cc(Cl)c3)cccc2c1N1CCC[C@H]1C(=O)O [Example 261, 1-{8-(3,5-dichlorophenyl)-3-[(4S)-3,4-dihydro-2H-chromen-4-ylcarbamoyl]quinolin-4-yl}-L-proline] | – | > 80% | < 0.1 µg/mL | < 0.1 µg/mL | – | – | – | – | –
C[C@H]1CN(c2c(C(=O)N[C@H]3CCOc4ccccc43)cnc3c(-c4cc(Cl)cc(Cl)c4)cccc23)CCO1 [Example 290] | < 3.16 nM | > 80% | < 0.1 µg/mL | < 0.1 µg/mL | – | – | – | – | –
O=C(N[C@H]1CCOc2ccccc21)c1cnc2c(-c3cc(Cl)cc(Cl)c3)cccc2c1C1CCOCC1 [Example 539, 8-(3,5-dichlorophenyl)-N-[(4S)-3,4-dihydro-2H-chromen-4-yl]-4-(tetrahydro-2H-pyran-4-yl)quinoline-3-carboxamide] | < 3.16 nM | – | < 0.1 µg/mL | < 0.1 µg/mL | 100% | 100% | 100% | 100% | –
COc1cc(-c2cccc3c(N(C)C)c(C(=O)N[C@H]4CCOc5ccccc54)cnc23)ccn1 [Example 64] | 3.16 to 31.6 nM | – | < 0.1 µg/mL | < 0.1 µg/mL | – | – | – | – | > 80%
CN(C)c1c(C(=O)N[C@H]2CCOc3ccccc32)cnc2c(-c3ncccc3F)cccc12 [Example 62] | 31.6 to 316 nM | – | < 0.1 µg/mL | < 1 µg/mL | – | – | – | – | > 80%
O=C(N[C@H]1CCOc2ccccc21)c1cnc2c(-c3cccc(OC(F)(F)F)c3)cccc2c1N1CCOCC1 [Example 322] | < 3.16 nM | > 80% | < 0.1 µg/mL | < 0.1 µg/mL | – | – | – | 80% | –
O=C(N[C@H]1CCOc2ccccc21)c1cnc2c(-c3cc(Cl)sc3Cl)cccc2c1N1CCOCC1 [Example 441] | < 3.16 nM | > 80% | < 0.1 µg/mL | < 0.1 µg/mL | – | – | – | – | –
C=Cc1c(C(=O)N[C@H]2CCOc3ccccc32)cnc2c(-c3cc(Cl)cc(Cl)c3)cccc12 [Example 478] | < 3.16 nM | > 80% | < 0.1 µg/mL | < 0.1 µg/mL | – | – | – | – | –
O=C(N[C@H]1CCOc2ccccc21)c1cnc2c(-c3c(F)cccc3F)c(F)ccc2c1N1CCOCC1 [Example 278] | < 3.16 nM | – | < 0.1 µg/mL | < 0.1 µg/mL | – | – | – | – | –
CN(C)c1c(C(=O)N[C@H]2CCOc3ccccc32)cnc2c(-c3cccc(Cl)c3Cl)c(C(F)(F)F)ccc12 [Example 315] | < 3.16 nM | > 80% | < 0.1 µg/mL | < 0.1 µg/mL | – | – | – | 80% | –

Compound | EC50 [1] | inhibition at 1 µg/mL [2] | EC50 [3] | EC50 [4] | mortality at 4 ppm [5] | mortality at 20 ppm [5] | mortality at 4 ppm [6] | mortality at 20 ppm [6] | inhibition at 10 µg/mL [2]
O=C(N[C@H]1CCOc2ccccc21)c1cnc2c(-c3cc(Cl)cc(Cl)c3)cccc2c1N1CC[C@@H](O)C1 [Example 283] | < 3.16 nM | > 80% | < 0.1 µg/mL | < 0.1 µg/mL | – | – | – | – | –
Cc1cc(-c2cccc3c(N4CCOCC4)c(C(=O)N[C@H]4CCOc5ccccc54)cnc23)cc(C(C)(C)C)c1 [Example 587] | < 3.16 nM | > 80% | < 0.1 µg/mL | < 0.1 µg/mL | – | – | – | 80% | –
N#Cc1c(C(=O)N[C@H]2CCOc3ccccc32)cnc2c(-c3cc(Cl)cc(Cl)c3)cccc12 [Example 362, 4-cyano-8-(3,5-dichlorophenyl)-N-[(4S)-3,4-dihydro-2H-chromen-4-yl] quinoline-3-carboxamide] | – | > 80% | < 0.1 µg/mL | < 0.1 µg/mL | – | – | – | – | > 80%
O=C(N[C@H]1CCc2ccccc21)c1cnc2c(-c3cc(Cl)cc(Cl)c3)cccc2c1N1CC(F)C1 [Example 119] | 3.16 to 31.6 nM | > 80% | < 0.1 µg/mL | < 0.1 µg/mL | – | – | – | – | > 80%
O=C(N[C@H]1CCOc2ccccc21)c1cnc2c(-c3cccc(F)c3Cl)cccc2c1N1CCC(O)C1 (mixture of isomers) [Example 258] | 3.16 to 31.6 nM | – | < 0.1 µg/mL | < 0.1 µg/mL | – | 90% | 80% | – | –
O=C(N[C@H]1CCCc2ccccc21)c1cnc2c(-c3cc(Cl)cc(Cl)c3)cccc2c1Cl [Example 2] | 3.16 to 31.6 nM | – | < 1 µg/mL | < 10 µg/mL | – | – | – | – | –
O=C(N[C@H]1CCOc2ccccc21)c1cnc2c(-c3cccc(Cl)c3Cl)c(C(F)(F)F)ccc2c1N1CCOCC1 [Example 314] | < 3.16 nM | > 80% | < 0.1 µg/mL | < 0.1 µg/mL | – | – | – | 90% | –
O=C(N[C@H]1CCOc2ccccc21)c1cnc2c(-c3ccc(F)c(Cl)c3)cccc2c1N1CCC(O)C1 (mixture of isomers) [Example 196] | 3.16 to 31.6 nM | – | < 0.1 µg/mL | < 0.1 µg/mL | – | – | 90% | 100% | –
NC(=O)Cc1c(C(=O)N[C@H]2CCOc3ccccc32)cnc2c(-c3cc(Cl)cc(Cl)c3)cccc12 [Example 360, 4-(2-amino-2-oxoethyl)-8-(3,5-dichlorophenyl)-N-[(4S)-3,4-dihydro-2H-chromen-4-yl]quinoline-3-carboxamide] | 3.16 to 31.6 nM | > 80% | < 0.1 µg/mL | < 0.1 µg/mL | – | – | – | – | –
O=C(N[C@H]1CCOc2ccccc21)c1cnc2c(-c3cc(Cl)c(F)c(Cl)c3)cc(F)cc2c1N1CCOCC1 [Example 43] | < 3.16 nM | > 80% | < 0.1 µg/mL | < 0.1 µg/mL | – | – | – | – | > 80%
CCc1c(C(=O)N[C@H]2CCOc3ccccc32)cnc2c(-c3cccc(OC(F)(F)F)c3)cccc12 [Example 570] | 3.16 to 31.6 nM | > 80% | < 0.1 µg/mL | < 0.1 µg/mL | – | – | – | – | –
O=C(N[C@H]1CCOc2ccccc21)c1cnc2c(-c3cccc(F)c3Cl)cccc2c1N1CCOCC1 [Example 238] | < 3.16 nM | > 80% | < 0.1 µg/mL | < 0.1 µg/mL | – | – | – | 80% | –
COCCOc1c(C(=O)N[C@H]2CCOc3ccccc32)cnc2c(-c3cc(Cl)cc(Cl)c3)cccc12 [Example 338] | < 3.16 nM | > 80% | < 0.1 µg/mL | < 0.1 µg/mL | – | – | 90% | 90% | > 80%
Cc1ccc(F)c(-c2cccc3c(N(C)C)c(C(=O)N[C@H]4CCOc5ccccc54)cnc23)c1 [Example 437] | < 3.16 nM | > 80% | < 0.1 µg/mL | < 0.1 µg/mL | – | – | 80% | – | –
CN(C)c1c(C(=O)NC2CSc3ccccc32)cnc2c(-c3cc(Cl)cc(Cl)c3)cccc12 (stereo not shown) [Example 493] | 3.16 to 31.6 nM | – | < 0.1 µg/mL | < 0.1 µg/mL | – | – | – | – | –
Cc1cc(C)cc(-c2cccc3c(Cl)c(C(=O)N[C@H]4CCCc5ccccc54)cnc23)c1 [Example 1, 4-chloro-8-(3,5-dimethylphenyl)-N-[(1S)-1,2,3,4-tetrahydronaphthalen-1-yl]quinoline-3-carboxamide] | 31.6 to 316 nM | – | < 1 µg/mL | < 0.1 µg/mL | – | – | – | – | –
